Assays:
[1] = tested on: giant foxtail; assay: Test B pre-/postemergence herbicide test; type: in vivo, Setaria faberi
Procedure, shortened: (§1)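 Test chemicals in a non-phytotoxic solvent mixture with surfactant were applied preemergence to seeded species and postemergence to plants 2-18 cm tall (1- to 4-leaf stage); rice and barnyardgrass were also tested in a flooded paddy at the 2-leaf stage. Visual rating versus controls after 13-15 days in greenhouse, scale 0 (no effect) to 100 (complete control).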

[2] = tested on: blackgrass; assay: Test B postemergence herbicide test; type: in vivo, Alopecurus myosuroides; conditions: scale 0 (no effect) to 100 (complete control); for Plant response rating, Blackgrass: Postemergence, 500 g ai/ha, visual rating after 13 to 15 days; for Blackgrass plant response rating: postemergence, 125 g ai/ha, visual rating
Procedure, shortened: (§2)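 Read-out: visual comparison with controls, scored 0 to 100, where 100 means complete control and 0 no effect. Formulated chemicals were applied postemergence to plants 2–18 cm tall (1- to 4-leaf), or to flooded-paddy plants at the 2-leaf stage, then held 13 to 15 days under glass.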

[3] = tested on: cocklebur; assay: Test B pre-/postemergence herbicide test; type: in vivo, Xanthium strumarium
Procedure, shortened: (§3)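 Pre: seeds sown, then sprayed. Post: 1–4-leaf plants (2–18 cm) sprayed at the same time. Paddy: flooded, treated at 2-leaf stage. Formulation: non-phytotoxic solvent with surfactant. Greenhouse 13–15 days; visual 0–100 score relative to controls.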

[4] = tested on: barnyardgrass; assay: Test B flooded paddy test; type: in vivo, Echinochloa crus-galli; conditions: 1000 g ai/ha, visual rating, scale 0 to 100 (0 no effect, 100 complete control), 13 to 15 days
Procedure, shortened: as §2

[5] = tested on: pigweed; assay: Test B pre-/postemergence herbicide test; type: in vivo, Amaranthus retroflexus; conditions: for Pigweed plant response rating: postemergence, visual rating
Procedure, shortened: as §1

[6] = tested on: wheat; assay: Test B postemergence herbicide test; type: in vivo, Triticum aestivum; set-up: key to Wheat plant response rating: 0 = no effect, 100 = complete control; conditions: scale 0 (no effect) to 100 (complete control); for Plant response rating, Wheat: Postemergence, 500 g ai/ha, visual rating after 13 to 15 days; for Wheat plant response rating: postemergence, 125 g ai/ha, visual rating
Procedure, shortened: (§4)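 Each value is a visual 0–100 response rating taken against controls 13 to 15 days after treatment in the greenhouse. Plants received formulated chemical postemergence at the 1- to 4-leaf stage or, in flooded paddy, at the 2-leaf stage.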

[7] = tested on: barnyardgrass; assay: Test B pre-/postemergence herbicide test; type: in vivo, Echinochloa crus-galli
Procedure, shortened: as §3

[8] = tested on: wild oat; assay: Test B postemergence herbicide test; type: in vivo, Avena fatua; conditions: scale 0 (no effect) to 100 (complete control); for Plant response rating, Oat, Wild: Postemergence, 500 g ai/ha, visual rating after 13 to 15 days; for Oat, Wild plant response rating: postemergence, 125 g ai/ha, visual rating
Procedure, shortened: as §4

[9] = tested on: large crabgrass; assay: Test B pre-/postemergence herbicide test; type: in vivo, Digitaria sanguinalis
Procedure, shortened: as §1

[10] = tested on: morningglory; assay: Test B pre-/postemergence herbicide test; type: in vivo, Ipomoea coccinea; conditions: for Morningglory plant response rating: postemergence, visual rating
Procedure, shortened: as §3

[11] = tested on: lambsquarters; assay: Test B pre-/postemergence herbicide test; type: in vivo, Chenopodium album; conditions: for Lambsquarters plant response rating: postemergence, visual rating
Procedure, shortened: as §1

[12] = tested on: ducksalad; assay: Test B flooded paddy test; type: in vivo, Heteranthera limosa; conditions: 1000 g ai/ha, visual rating, scale 0 to 100 (0 no effect, 100 complete control), 13 to 15 days
Procedure, shortened: as §2

[13] = tested on: Surinam grass; assay: Test B pre-/postemergence herbicide test; type: in vivo, Urochloa decumbens; conditions: for Surinam Grass plant response rating: postemergence, visual rating
Procedure, shortened: as §1

[14] = tested on: corn; assay: Test B pre-/postemergence herbicide test; type: in vivo, Zea mays
Procedure, shortened: as §1

[15] = tested on: rice; assay: Test B pre-/postemergence herbicide test; type: in vivo, Oryza sativa; conditions: preemergence
Excerpt: Seeds selected from barnyardgrass (Echinochloa crus-galli (L.) Beauv.), Surinam grass (Urochloa decumbens (Staph) R. D. Webster, previously named Brachiaria decumbens Stapf), cocklebur (Xanthium strumarium L.), corn (Zea mays L.), large crabgrass (Digitaria sanguinalis (L.) Scop.), giant foxtail (Setaria faberi Herim.), lambsquarters (Chenopodium album L.), morningglory (Ipomoea coccinea L.), pigweed (Amaranthus retroflexus L.), rice (Oryza sativa L.) and velvetleaf (Abutilon theophrasti Medik.) were planted and treated preemergence with test chemicals formulated in a non-phytotoxic solvent mixture which included a surfactant.
At the same time, plants selected from these crop and weed species and also blackgrass (Alopecurus myosuroides Huds.), wheat (Triticum aestivum L.) and wild oat (Avena fatua L.) were treated with postemergence applications of test chemicals formulated in the same manner. Plants ranged in height from 2 to 18 cm (1- to 4-leaf stage) for postemergence treatments. Plant species in the flooded paddy test consisted of rice (Oryza sativa L.), small flower umbrella sedge (Cyperus difformis L.), ducksalad (Heteranthera limosa (Sw.) Willd.) and barnyardgrass (Echinochloa crus-galli (L.) Beauv.) grown to the 2-leaf stage for testing. Treated plants and controls were maintained in a greenhouse for 13 to 15 days, after which time all species were compared to controls and visually evaluated. Plant response ratings, summarized in Table B, are based on a scale of 0 to 100 where 0 is no effect and 100 is complete control. A dash (-) response means no test result.

[16] = tested on: velvetleaf; assay: Test B pre-/postemergence herbicide test; type: in vivo, Abutilon theophrasti; conditions: for Velvetleaf plant response rating: postemergence, visual rating
Procedure, shortened: as §1

[17] = tested on: small flower umbrella sedge; assay: Test B flooded paddy test; type: in vivo, Cyperus difformis; conditions: 1000 g ai/ha, visual rating, scale 0 to 100 (0 no effect, 100 complete control), 13 to 15 days
Procedure, shortened: as §2

[18] = tested on: rice; assay: Test B flooded paddy test; type: in vivo, Oryza sativa; conditions: 1000 g ai/ha, visual rating, scale 0 to 100 (0 no effect, 100 complete control), 13 to 15 days
Procedure, shortened: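 Paddy species grown to the 2-leaf stage under flooding; blackgrass sprayed postemergence at 2–18 cm (1- to 4-leaf stage). Plants kept in a greenhouse for 13 to 15 days, then visually rated against controls on 0 (no effect) to 100 (complete control).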

[19] = Postemergence, 500 g ai/ha, visual rating after 13 to 15 days, scale 0 (no effect) to 100 (complete control)
[20] = Preemergence, 500 g ai/ha, scale 0 to 100
[21] = postemergence, 125 g ai/ha, visual rating, scale 0 (no effect) to 100 (complete control)
[22] = preemergence, 125 g ai/ha, 0 to 100 scale, 0 is no effect, 100 is complete control
[23] = 125 g ai/ha, scale 0 (no effect) to 100 (complete control)
[24] = 125 g ai/ha, 0 to 100 scale, 0 is no effect, 100 is complete control
[25] = 500 g ai/ha, visual rating 0-100, 0 no effect, 100 complete control, preemergence

CCN(CC)C(=O)c1cc(NC(=O)c2cc(C(C)(C)C)nn2CC)ccc1C [Compound 69]
Plant response rating, Foxtail, Giant [1, 19]: 0 | Foxtail, Giant plant response rating [1, 20]: 0 | Foxtail, Giant plant response rating [1, 21]: 0 | Plant response rating, Foxtail, Giant [1, 22]: 0 | Plant response rating, Blackgrass [2]: 30 | Blackgrass plant response rating [2]: 10 | Plant response rating, Cocklebur [3, 19]: 0 | Cocklebur plant response rating [3, 21]: 0 | Plant response rating, Cocklebur [3, 22]: 0 | Barnyardgrass plant response rating [4]: 0 | Plant response rating, Pigweed [5, 19]: 20 | Pigweed plant response rating [5, 23]: 10 | Plant response rating, Pigweed [5, 22]: 0 | Plant response rating, Wheat [6]: 0 | Wheat plant response rating [6]: 0 | Plant response rating, Barnyardgrass [7, 19]: 0 | Barnyardgrass plant response rating [7, 20]: 0 | Barnyardgrass plant response rating [7, 21]: 0 | Plant response rating, Barnyardgrass [7, 22]: 0 | Plant response rating, Oat, Wild [8]: 20 | Oat, Wild plant response rating [8]: 10 | Plant response rating, Crabgrass, Large [9, 19]: 0 | Crabgrass, Large plant response rating [9, 20]: 0 | Crabgrass, Large plant response rating [9, 21]: 0 | Plant response rating, Crabgrass, Large [9, 22]: 0 | Plant response rating, Morningglory [10, 19]: 0 | Morningglory plant response rating [10, 23]: 0 | Plant response rating, Morningglory [10, 22]: 0 | Plant response rating, Lambsquarters [11, 19]: 10 | Lambsquarters plant response rating [11, 23]: 0 | Plant response rating, Lambsquarters [11, 22]: 0 | Ducksalad plant response rating [12]: 0 | Plant response rating, Surinam Grass [13, 19]: 0 | Surinam Grass plant response rating [13, 23]: 0 | Plant response rating, Surinam Grass [13, 22]: 0 | Plant response rating, Corn [14, 19]: 0 | Corn plant response rating [14, 20]: 0 | Corn plant response rating [14, 21]: 0 | Plant response rating, Corn [14, 22]: 0 | Plant response rating, Rice [15, 24]: 0 | Plant response rating, Velvetleaf [16, 19]: 0 | Velvetleaf plant response rating [16, 23]: 0 | Plant response rating, Velvetleaf [16, 22]: 0 | Sedge, Umbrella plant response rating [17]: 0 | Rice plant response rating [18]: 0

CCn1nc(C(C)(C)C)cc1C(=O)Nc1cc(C(=O)OC(C)C)c(OC)cc1F [Compound 77]
Plant response rating, Foxtail, Giant [1, 19]: 40 | Foxtail, Giant plant response rating [1, 20]: 60 | Foxtail, Giant plant response rating [1, 21]: 0 | Plant response rating, Foxtail, Giant [1, 22]: 0 | Plant response rating, Blackgrass [2]: 30 | Blackgrass plant response rating [2]: 20 | Plant response rating, Cocklebur [3, 19]: 0 | Cocklebur plant response rating [3, 20]: 0 | Cocklebur plant response rating [3, 21]: 0 | Plant response rating, Cocklebur [3, 22]: 0 | Barnyardgrass plant response rating [4]: 40 | Plant response rating, Pigweed [5, 19]: 90 | Pigweed plant response rating [5, 23]: 70 | Plant response rating, Pigweed [5, 22]: 90 | Plant response rating, Wheat [6]: 20 | Wheat plant response rating [6]: 10 | Plant response rating, Barnyardgrass [7, 19]: 0 | Barnyardgrass plant response rating [7, 20]: 70 | Barnyardgrass plant response rating [7, 21]: 0 | Plant response rating, Barnyardgrass [7, 22]: 0 | Plant response rating, Oat, Wild [8]: 40 | Oat, Wild plant response rating [8]: 40 | Plant response rating, Crabgrass, Large [9, 19]: 40 | Crabgrass, Large plant response rating [9, 20]: 80 | Crabgrass, Large plant response rating [9, 21]: 0 | Plant response rating, Crabgrass, Large [9, 22]: 0 | Plant response rating, Morningglory [10, 19]: 70 | Morningglory plant response rating [10, 23]: 0 | Plant response rating, Morningglory [10, 22]: 0 | Plant response rating, Lambsquarters [11, 19]: 90 | Lambsquarters plant response rating [11, 23]: 50 | Plant response rating, Lambsquarters [11, 22]: 60 | Ducksalad plant response rating [12]: 40 | Plant response rating, Surinam Grass [13, 19]: 20 | Surinam Grass plant response rating [13, 23]: 0 | Plant response rating, Surinam Grass [13, 22]: 0 | Plant response rating, Corn [14, 19]: 10 | Corn plant response rating [14, 20]: 40 | Corn plant response rating [14, 21]: 10 | Plant response rating, Corn [14, 22]: 0 | Plant response rating, Rice [15, 24]: 0 | Plant response rating, Velvetleaf [16, 19]: 30 | Velvetleaf plant response rating [16, 23]: 20 | Plant response rating, Velvetleaf [16, 22]: 0 | Sedge, Umbrella plant response rating [17]: 80 | Rice plant response rating [18]: 70

CCn1nc(C(C)(C)C)cc1C(=O)Nc1ccc(C)c(C(=O)OC(C)C)c1 [Compound 100]
Plant response rating, Foxtail, Giant [1, 25]: 0 | Plant response rating, Foxtail, Giant [1, 19]: 0 | Foxtail, Giant plant response rating [1, 21]: 0 | Plant response rating, Foxtail, Giant [1, 22]: 0 | Plant response rating, Blackgrass [2]: 30 | Blackgrass plant response rating [2]: 10 | Plant response rating, Cocklebur [3, 25]: 0 | Plant response rating, Cocklebur [3, 19]: 0 | Cocklebur plant response rating [3, 21]: 0 | Plant response rating, Cocklebur [3, 22]: 0 | Barnyardgrass plant response rating [4]: 0 | Plant response rating, Pigweed [5, 25]: 0 | Plant response rating, Pigweed [5, 19]: 60 | Pigweed plant response rating [5, 23]: 0 | Plant response rating, Pigweed [5, 22]: 0 | Plant response rating, Wheat [6]: 10 | Wheat plant response rating [6]: 10 | Plant response rating, Barnyardgrass [7, 25]: 0 | Plant response rating, Barnyardgrass [7, 19]: 0 | Barnyardgrass plant response rating [7, 21]: 0 | Plant response rating, Barnyardgrass [7, 22]: 0 | Plant response rating, Oat, Wild [8]: 40 | Oat, Wild plant response rating [8]: 20 | Plant response rating, Crabgrass, Large [9, 25]: 0 | Plant response rating, Crabgrass, Large [9, 19]: 0 | Crabgrass, Large plant response rating [9, 21]: 0 | Plant response rating, Crabgrass, Large [9, 22]: 0 | Plant response rating, Morningglory [10, 25]: 0 | Plant response rating, Morningglory [10, 19]: 0 | Morningglory plant response rating [10, 23]: 0 | Plant response rating, Morningglory [10, 22]: 0 | Plant response rating, Lambsquarters [11, 25]: 0 | Plant response rating, Lambsquarters [11, 19]: 50 | Lambsquarters plant response rating [11, 23]: 0 | Plant response rating, Lambsquarters [11, 22]: 0 | Ducksalad plant response rating [12]: 0 | Plant response rating, Surinam Grass [13, 25]: 0 | Plant response rating, Surinam Grass [13, 19]: 20 | Surinam Grass plant response rating [13, 23]: 0 | Plant response rating, Surinam Grass [13, 22]: 0 | Plant response rating, Corn [14, 25]: 0 | Plant response rating, Corn [14, 19]: 0 | Corn plant response rating [14, 21]: 0 | Plant response rating, Corn [14, 22]: 0 | Plant response rating, Rice ([15]; 500 g ai/ha, visual rating 0-100, 0 no effect, 100 complete control): 0 | Plant response rating, Rice [15, 24]: 0 | Plant response rating, Velvetleaf [16, 25]: 0 | Plant response rating, Velvetleaf [16, 19]: 0 | Velvetleaf plant response rating [16, 23]: 0 | Plant response rating, Velvetleaf [16, 22]: 0 | Sedge, Umbrella plant response rating [17]: 0 | Rice plant response rating [18]: 0
